Consider ten molecules from patent US20060263368A1, “Targeted chimeric molecules for cancer therapy” (Research Development Foundation, priority 2005, published 2006).

The subject of one data set is AsPc-1. Kind of data set: In vitro cytotoxicity and combination study, crystal violet. In kind it is cell-based, human. The following applies: 72 hr of exposure. An excerpt: (§1) If CI near to 1 indicates additive effect (ADD), CI>1 indicates antagonism (ANT), CI<1 indicates synergism (SYN).
For another data set, the system named is Capan-1. The data set is described as above. The following applies: 72 hr of exposure. The data set is classed as cell-based, human.
Text: as §1

A further data set concerns Capan-2. Described as above. The following applies: 72 hr of exposure. In kind it is cell-based, human.
Text: as §1

Another data set concerns L3.6pl. The description is as above. In kind it is cell-based, human. The following applies: 72 hr of exposure.
Text: as §1

The next data set concerns L3.6pl cells. Nature of the data set: Western blot of signal transduction effects. In kind it is cell-based, human. More on the design: key to Caspase-8 cleavage / Caspase-3 cleavage / PARP cleavage / Akt / p-Akt / Bcl-2: NE represents no effect. The following applies: IC25 doses. How it is done:
Cell lysates ([…]) were fractionated by 8-15% SDS-PAGE and transferred on Immobilon-P nitrocellulose membranes (Schleicher & Schuell Inc., Keene, N.H.). Membranes were blocked for 2 hours in Tris-buffered saline (TBS) containing 3% bovine serum albumin. Monoclonal anti-HER-2/neu Ab (Oncogene Research Products, San Diego, Calif.), rabbit polyclonal anti-HER-1 Ab, rabbit polyclonal anti-TNFR-1 Ab, rabbit polyclonal anti-TNFR-2 Ab, rabbit polyclonal anti-phospho Akt Ab, rabbit polyclonal anti-Akt, and goat anti-β-actin Ab were used for immunoblotting. Goat anti-mouse/goat anti-rabbit or swain anti-goat antibodies conjugated with horseradish peroxidase (Bio-Rad Laboratories, Hercules, Calif.) were used to visualize immunoreactive proteins at a 1:4000 dilution using ECL detection reagent (Amersham Pharmacia Biotech Inc., Piscataway, N.J.).
HER-2/neu over-expression results in activation of different downstream pathways such as the Akt kinase pathway, which leads to cell proliferation and cell survival. […] The activation of Akt kinase was then assessed by Western blot analysis using antibodies to Akt and to phospho-Akt. […]
To determine whether caspase-8 and caspase-3 were activated in L3.6pl cells during 5-FU+scFv23/TNF-induced cell death, the cleavage of caspase-8, caspase-3, and its substrate poly (ADP)-ribose polymerase (PARP) was investigated.

The subject of data set [1] is AsPc-1, Capan-1, Capan-2, and L3.6pl. Nature of the data set: cells. The following applies: Homo sapiens, Pancreatic cancer cell.
Protocol: (§4) To examine the potential mediation of the synergistic effect of combination treatments by activation of caspase-3 cells were pretreated with or without 100 μM caspase-3 inhibitor (Ac-DEVD-CHO) for 3 hr and then treated with their individual IC25 concentrations. After incubation for an additional 72 hr, remaining adherent cells were stained by adding 50 μl of crystal violet solution (0.5% w/v in 20% MeOH/H2O). Dye-stained cells were solubilized by addition of 100 μl of Sorenson's buffer [100 mM sodium citrate (pH 4.2) in 50% ethanol], and absorbance was measured at 630 nm using an ELISA plate reader (Bio-Tek Instruments, Inc., Winooski, Vt.).
In a further data set the test system is A375-M Cells. Kind of data set: Combination studies of GrB/scFvMEL with chemotherapeutic agents. The following applies: for antitumor activity on co-administration with GrB/scFvMEL: 72 hours.
Data set [2] relates to AsPc-1, Capan-1, Capan-2, and L3.6pl. The following applies: pancreatic cancer cell lines.
Protocol: as §4
Data set [3] deals with A375 doxorubicin-resistant (A375DR). Nature of the data set: Cytotoxicity on parental and doxorubicin-resistant cells. The data set is classed as cell-based. The following applies: Homo sapiens, A-375; 72 hours. How it is done:
(§2) To examine the cytotoxicity of GrB/scFvMEL or MEL/sFv/rGel, melanoma cells were plated on 96-well plates at a density of 4×10^3 cells per well and allowed to adhere for 24 hr at 37° C. in 5% CO2. After 24 hr, the medium was replaced with medium that contained various concentrations of fusion proteins. […] The percent of control refers to the percentage of cells in the drug-treated wells compared to that of control (untreated) wells.
(§3) Expression of the gp240 antigen was assessed by ELISA using ZME-018 antibody specifically recognizing gp240 antigen.

The subject of the next data set is parental A375 cells. The description is as above. The following applies: Homo sapiens, A-375; 72 hours. The data set is classed as cell-based. How it is done: as §2, §3
Data set [4] deals with gp240 antigen (high-molecular-weight glycoprotein gp240 on human melanoma cells) (human) (UniProt Q6UVK1). Kind of data set: cell-based or functional assay.
Chain of gp240 antigen (high-molecular-weight glycoprotein gp240 on human melanoma cells) (human) (Q6UVK1 30-2322): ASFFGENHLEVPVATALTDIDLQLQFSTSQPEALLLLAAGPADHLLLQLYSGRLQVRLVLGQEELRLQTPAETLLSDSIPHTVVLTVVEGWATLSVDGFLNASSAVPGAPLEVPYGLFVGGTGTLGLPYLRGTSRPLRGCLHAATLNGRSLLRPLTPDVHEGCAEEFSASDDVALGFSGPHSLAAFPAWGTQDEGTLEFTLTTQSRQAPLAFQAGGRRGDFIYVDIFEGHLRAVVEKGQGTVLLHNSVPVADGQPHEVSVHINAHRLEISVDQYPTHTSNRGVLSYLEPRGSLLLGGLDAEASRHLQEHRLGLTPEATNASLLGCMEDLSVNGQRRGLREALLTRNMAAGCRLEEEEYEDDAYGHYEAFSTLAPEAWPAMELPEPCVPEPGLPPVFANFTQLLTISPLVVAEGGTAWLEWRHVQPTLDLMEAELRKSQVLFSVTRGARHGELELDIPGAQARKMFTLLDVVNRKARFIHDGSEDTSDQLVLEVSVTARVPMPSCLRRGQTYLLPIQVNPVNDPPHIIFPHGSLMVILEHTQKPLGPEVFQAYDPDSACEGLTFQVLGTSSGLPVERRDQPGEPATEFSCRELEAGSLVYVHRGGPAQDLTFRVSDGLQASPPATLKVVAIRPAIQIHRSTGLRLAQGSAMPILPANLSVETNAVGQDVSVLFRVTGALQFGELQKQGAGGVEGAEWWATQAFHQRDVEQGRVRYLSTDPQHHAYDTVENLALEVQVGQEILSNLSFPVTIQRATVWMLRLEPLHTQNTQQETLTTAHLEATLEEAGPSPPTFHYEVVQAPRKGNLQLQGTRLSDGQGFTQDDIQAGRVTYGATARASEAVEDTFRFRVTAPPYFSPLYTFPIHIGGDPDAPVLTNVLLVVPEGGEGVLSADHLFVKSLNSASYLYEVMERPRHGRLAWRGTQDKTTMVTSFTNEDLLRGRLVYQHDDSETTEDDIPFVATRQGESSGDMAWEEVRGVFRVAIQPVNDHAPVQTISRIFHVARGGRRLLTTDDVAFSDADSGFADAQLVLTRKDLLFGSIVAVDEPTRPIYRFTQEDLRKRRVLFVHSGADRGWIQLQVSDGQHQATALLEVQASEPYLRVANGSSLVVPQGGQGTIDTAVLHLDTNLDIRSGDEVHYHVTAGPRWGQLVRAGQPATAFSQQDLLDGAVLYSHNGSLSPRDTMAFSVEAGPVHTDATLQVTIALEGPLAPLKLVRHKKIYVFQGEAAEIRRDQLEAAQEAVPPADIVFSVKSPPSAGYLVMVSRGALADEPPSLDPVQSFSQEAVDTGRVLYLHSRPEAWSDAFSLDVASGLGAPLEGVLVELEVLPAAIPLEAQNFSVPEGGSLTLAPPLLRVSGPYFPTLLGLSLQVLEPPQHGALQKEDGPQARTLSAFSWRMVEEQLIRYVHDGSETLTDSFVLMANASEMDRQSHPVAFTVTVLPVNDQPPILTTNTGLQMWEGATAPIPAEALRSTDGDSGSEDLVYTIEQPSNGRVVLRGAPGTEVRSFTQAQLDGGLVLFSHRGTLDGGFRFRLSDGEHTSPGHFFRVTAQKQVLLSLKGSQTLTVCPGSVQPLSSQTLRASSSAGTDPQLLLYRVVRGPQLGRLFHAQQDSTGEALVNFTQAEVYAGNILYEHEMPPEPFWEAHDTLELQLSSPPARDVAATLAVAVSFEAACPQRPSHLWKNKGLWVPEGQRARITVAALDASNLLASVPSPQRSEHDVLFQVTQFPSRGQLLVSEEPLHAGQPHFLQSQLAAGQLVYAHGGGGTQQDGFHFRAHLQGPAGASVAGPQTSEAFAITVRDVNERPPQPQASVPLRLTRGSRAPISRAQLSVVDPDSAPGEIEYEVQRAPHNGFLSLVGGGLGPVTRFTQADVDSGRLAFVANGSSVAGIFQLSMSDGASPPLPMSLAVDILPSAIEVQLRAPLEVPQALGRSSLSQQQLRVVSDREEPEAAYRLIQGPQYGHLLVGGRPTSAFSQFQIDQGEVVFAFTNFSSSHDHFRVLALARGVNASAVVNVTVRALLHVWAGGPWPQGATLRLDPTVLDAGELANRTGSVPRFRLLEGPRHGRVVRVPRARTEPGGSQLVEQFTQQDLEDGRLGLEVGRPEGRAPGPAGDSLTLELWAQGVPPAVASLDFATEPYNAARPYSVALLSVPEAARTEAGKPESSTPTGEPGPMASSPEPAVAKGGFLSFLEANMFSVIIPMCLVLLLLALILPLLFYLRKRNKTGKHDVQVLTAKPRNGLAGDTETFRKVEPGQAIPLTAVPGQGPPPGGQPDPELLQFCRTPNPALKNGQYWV
Data set [5] has the same target. Kind of data set: flow cytometry on A375-M cells stained with ZME-018 IgG2a and APC goat anti-mouse, against an isotype control. On the technique in general: Flow cytometry measures light scatter and fluorescence of single cells or particles in a stream.
The target is the same in data set [6]. Kind of data set: flow cytometry on MEL-526 cells stained with ZME-018 IgG2a and APC goat anti-mouse, against an isotype control.
Data set [7] shares this target. Nature of the data set: flow cytometry on TXM-18L cells stained with ZME-018 IgG2a and APC goat anti-mouse, against an isotype control.
Data set [8] has the same target. Kind of data set: flow cytometry on TXM-1 cells (very low gp240) stained with ZME-018 IgG2a and APC goat anti-mouse, against an isotype control.
Data set [9] concerns HER-2-overexpressing SKBR-3/H cells. Nature of the data set: Western blot, DNA fragmentation, TUNEL: signal transduction effects. Set-up: key to Akt / Caspase-8 cleavage / Caspase-3 cleavage / PARP cleavage / DNA fragmentation / IκB-α / TRADD / TRAF-2: NE represents no effect. The following applies: 200 nM. The data set is classed as cell-based, human. As to the method:
Apoptosis was detected by DNA fragmentation and TUNEL assay. […] After 24 hr and 48 hr, cells were washed with PBS, resuspended in a DNA extraction buffer containing 5 mM Tris-HCl, pH 8, 50 mM EDTA, 10 μg/ml RNAse, and 0.25% SDS and then incubated for 1 hr at 37° C. To remove protein, resuspended cell lysates were treated with 100 μg/ml proteinase K for 3 hr at 50° C. DNA was extracted using phenol and chloroform followed by ethanol precipitation. The genomic DNA was resuspended in Tris-EDTA (pH 8) and was fractionated by electrophoresis on a 1% agarose gel containing ethidium bromide.
The cells were washed with PBS, permeabilized (0.1% Triton X-100, 0.1% sodium citrate), and then fixed in 4% paraformaldehyde. Fixed cells were stained with in situ cell death detection kit (Roche). Cells undergoing apoptosis were identified by fluorescence microscopy.
After treatment, cells were washed twice with phosphate buffered saline (PBS) and lysed on ice for 20 min in 0.3 ml of lysis buffer (10 mM Tris-HCl, pH 8, 60 mM KCl, 1 mM EDTA, 1 mM DTT, 0.2% NP-40). Cell lysates (50 μg) were fractionated by 8-15% SDS-PAGE and electrophoretically transferred to Immobilon-P nitrocellulose membranes (Schleicher & Schuell Inc., Keene, N.H.). Membranes were blocked 2 hrs in Tris-buffered saline (TBS) containing 3% bovine serum albumin and then probed with various antibodies (monoclonal anti-HER-2/neu Ab, rabbit polyclonal anti-TNFR1 Ab, rabbit polyclonal anti-TNFR2 Ab, rabbit polyclonal anti-caspase-8 Ab, monoclonal anti-caspase-3 Ab, monoclonal anti-PARP Ab, rabbit polyclonal anti-TRADD Ab, rabbit polyclonal anti-TRAF2 Ab, rabbit polyclonal anti-IκB-α Ab, rabbit polyclonal anti-phospho Akt Ab, and rabbit polyclonal anti-Akt Ab). Goat anti-mouse/goat anti-rabbit or swain anti-goat antibodies conjugated with horseradish peroxidase (Bio-Rad Laboratories, Hercules, Calif.) were used to visualize immunoreactive proteins at a 1:4000 dilution using ECL detection reagent (Amersham Pharmacia Biotech Inc., Piscataway, N.J.).
On the technique in general: A western blot detects proteins with antibodies after separation by electrophoresis.

[10] abbreviates: Seq. III: pretreated with GrB/scFvMEL for 6 h, then agent for 72 h.
Where [11] appears, read: Seq. IV: agent for 72 h without GrB/scFvMEL pretreatment.

By IC50 is commonly meant the concentration needed to halve the response being measured. For `O=c1[nH]cc(F)c(=O)[nH]1` [5-Fluorouracil, 5-fluorouracil], the IC50 with AsPc-1 (Homo sapiens, ASPC1) was 7500 nM; in the data set with Capan-1 (Homo sapiens, CAPAN-1), 6000 nM; in the data set with Capan-2 (Homo sapiens, Capan-2), 300000 nM; in the data set on L3.6pl (Homo sapiens, L3.6pl) it was 1000 nM; in data set [1] it was 1000 to 300000 nM. Further, the Akt result in the data set on L3.6pl cells is recorded as “NE”. In addition, the Bcl-2 entry with L3.6pl cells was “NE”. The “inhibition of Bcl-2 expression levels” value in the data set on L3.6pl cells is recorded as “no impact”. In addition, in the data set on L3.6pl cells, the p-Akt entry was “NE”. Moreover, in the data set with L3.6pl cells (48 hr), the Caspase-3 cleavage entry is given as “NE”. Moreover, the Caspase-8 cleavage entry in the data set with L3.6pl cells (48 hr) is recorded as “NE”. The PARP cleavage entry in the data set on L3.6pl cells (48 hr) was “NE”. In addition, the “antitumor activity on co-administration with GrB/scFvMEL” value (“antitumor activity … with GrB/scFvMEL” below) in the data set with A375-M Cells is “additive”. For the same molecule, the “% cytotoxicity” value is 44.43 ± 2.118% in the data set on A375-M Cells (setting [10]) and 21.90 ± 0.794% in the data set on A375-M Cells (setting [11]).
With `Nc1ccn([C@@H]2O[C@H](CO)[C@@H](O)[C@@H]2O)c(=O)n1` [Ara C, cytarabine], the “antitumor activity … with GrB/scFvMEL” value in the data set on A375-M Cells is “additive”. Moreover, the “% cytotoxicity” value in the data set on A375-M Cells (setting [10]) was found to be 68.70 ± 0.950%; in the data set on A375-M Cells (setting [11]), 62.10 ± 1.054%.
`N.N.[Cl][Pt][Cl]` [Cisplatin]: the IC50 with AsPc-1 amounted to 14000 nM; in the data set with Capan-1 it was 4500 nM; with Capan-2 it was 50000 nM; with L3.6pl, 3600 nM. In addition, in data set [2], the “cytotoxic effect of agent combined with scFv23/TNF” value is listed as “antagonistic cytotoxic effects in 3/4 cell lines”. In addition, the “antitumor activity … with GrB/scFvMEL” value in the data set on A375-M Cells was “synergistic”.
Consider `COc1cccc2c1C(=O)c1c(O)c3c(c(O)c1C2=O)C[C@@](O)(C(=O)CO)C[C@@H]3O[C@H]1C[C@H](N)[C@H](O)[C@H](C)O1` [Doxorubicin], for which the IC50 in the data set with AsPc-1 (Homo sapiens, ASPC1) was found to be 320 nM; with Capan-1 (Homo sapiens, CAPAN-1), 60 nM; in the data set with Capan-2 (Homo sapiens, Capan-2) it was 500 nM; with L3.6pl (Homo sapiens, L3.6pl) it was 30 nM; in data set [3], 200 nM; in the data set on parental A375 cells it was 0.5 nM. Besides, the IC50 in [1] lay within 6 to 700 nM. In the data set with A375-M Cells, the “antitumor activity … with GrB/scFvMEL” value is “synergistic”. Moreover, the “% cytotoxicity” value with A375-M Cells (setting [10]) was determined as 33.73 ± 1.590%; in the data set on A375-M Cells (setting [11]) it was 30.33 ± 1.093%.
In the case of `COc1cc([C@@H]2c3cc4c(cc3[C@@H](O[C@@H]3O[C@@H]5CO[C@@H](C)O[C@H]5[C@H](O)[C@H]3O)[C@H]3COC(=O)[C@H]23)OCO4)cc(OC)c1O` [Etoposide], the IC50 was 28000 nM in the data set on AsPc-1 (Homo sapiens, ASPC1); 2000 nM with Capan-1 (Homo sapiens, CAPAN-1); 40000 nM in the data set with Capan-2 (Homo sapiens, Capan-2); 2000 nM in the data set with L3.6pl (Homo sapiens, L3.6pl); 1000 to 300000 nM in data set [1]. In addition, the “antitumor activity … with GrB/scFvMEL” value in the data set on A375-M Cells is listed as “additive”. Also, the “% cytotoxicity” value in the data set with A375-M Cells (setting [10]) is 59.80 ± 1.986%; in the data set with A375-M Cells (setting [11]) it was 51.27 ± 1.102%.
Consider `Nc1ccn([C@@H]2O[C@H](CO)[C@@H](O)C2(F)F)c(=O)n1` [Gemcitabine], for which the IC50 with AsPc-1 (Homo sapiens, ASPC1) is 200 nM; in the data set on Capan-1 (Homo sapiens, CAPAN-1) it was 20 nM; in the data set on Capan-2 (Homo sapiens, Capan-2), 150 nM; in the data set on L3.6pl (Homo sapiens, L3.6pl) it was 6 nM; in data set [1], 6 to 700 nM. In data set [2], the “cytotoxic effect of agent combined with scFv23/TNF” value is recorded as “antagonistic cytotoxic effects in 3/4 cell lines”.
Regarding `CC[C@]1(O)C[C@H]2CN(CCc3c([nH]c4ccccc34)[C@@](C(=O)OC)(c3cc4c(cc3OC)N(C=O)[C@H]3[C@@](O)(C(=O)OC)[C@H](OC(C)=O)[C@]5(CC)C=CCN6CC[C@]43[C@@H]65)C2)C1` [VCR, vincristine], in the data set on A375-M Cells, the “antitumor activity … with GrB/scFvMEL” value is listed as “synergistic”.
In data set [4], “GrB/scFvMEL fusion construct (from UniProt P10144 21-247)” registered an I.C.50, 72-h cytotoxicity (crystal violet), A375-M cells of 32.1 nM; an I.C.50, 72-h cytotoxicity (crystal violet), MEL-526 cells of 50 nM; an I.C.50, 72-h cytotoxicity (crystal violet), TXM-1 cells (very low-level gp240 expression) above 1 µM; an I.C.50, 72-h cytotoxicity (crystal violet), TXM-13 cells of 200 nM. For the same molecule, the I.C.50, 72-h cytotoxicity (crystal violet), TXM-18L cells in data set [4] was 158 nM.
On to monoclonal antibody ZME-018 IgG2a, for which the Gp240 Antigen % positive in [5] is 98.9%; in data set [6], 97.8%; in [7], 40.9%; in [8], 4.6%.

B1: scFv23: single chain antibody recognizing the cell surface domain of HER-2/neu (protein)
scFv: DVQLTQSPAILSASPGEKVTMTCRATPSVSYMHWYQQKPGSSPKPWIYTTSNLASGVPARFSGGGSGTSYSLTVSRVEAEDAATYYCQQWSRSPPTFGGGSKLEIKGSTSGSGKSSEGKGVQLQESGPEVVKPGGSMKISCKTSGYSFTGHTMNWVKQSHGKNLEWIGLINPYNGDTNYNQKFKGKATFTVDKSSSTAYMELLSLTSEDSAVYYCARRVTDWYFDVWGAGTTVTVSS
As to B1, in data set [9], the Akt entry is “NE”, the Caspase-3 cleavage result was “NE”, the Caspase-8 cleavage entry is on record as “NE” and the DNA fragmentation entry is given as “NE”. Also, in [9], the IκB-α result was “NE*”, the PARP cleavage result was “NE”, the TRADD result is recorded as “NE” and the TRAF-2 entry was “NE”. Moreover, the p-Akt result in data set [9] is “↑”.
